From ChEMBL document CHEMBL1921790, “Synthesis and antimicrobial activity of brominated resorcinol dimers” (Bioorg Med Chem Lett, 2011)
Converted amounts (≈) assume the structure as drawn.

What was measured:
Escherichia coli = assay: Antibacterial activity against Escherichia coli ATCC 25922 after 24 hrs by two fold serial dilution method; type: functional; details: ATCC 25922, 24 h
Bacillus subtilis = assay: Antibacterial activity against Bacillus subtilis ATCC 6633 after 24 hrs by two fold serial dilution method; type: functional; details: ATCC 6633, 24 h
Trichophyton rubrum = assay: Antifungal activity against Trichophyton rubrum IFO 9185 after 48 to 72 hrs by two fold serial dilution method; type: functional
Salmonella typhimurium = assay: Antibacterial activity against Salmonella Typhimurium ATCC 14028 after 24 hrs by two fold serial dilution method; type: functional, Salmonella enterica subsp. enterica serovar Typhimurium; details: Salmonella enterica, ATCC 14028, 24 h
Staphylococcus aureus = assay: Antibacterial activity against Staphylococcus aureus ATCC 6538p after 24 hrs by two fold serial dilution method; type: functional
Isocitrate lyase = Isocitrate lyase (Candida albicans, UniProt Q9P8Q7); assay: Inhibition of Candida albicans isocitrate lyase after 30 mins
Aspergillus fumigatus = assay: Antifungal activity against Aspergillus fumigatus HIC 6094 after 48 to 72 hrs by two fold serial dilution method; type: functional
Candida albicans = assay: Antifungal activity against Candida albicans ATCC 10231 after 24 to 72 hrs by two fold serial dilution method; type: functional
[1] = tested on: Trichophyton mentagrophytes; assay: Antifungal activity against Trichophyton mentagrophytes IFO 40996 after 48 to 72 hrs by two fold serial dilution method; type: functional
Micrococcus luteus = assay: Antibacterial activity against Micrococcus luteus IFC 12708 after 24 hrs by two fold serial dilution method; type: functional; details: IFC 12708, 24 h
Proteus vulgaris = assay: Antibacterial activity against Proteus vulgaris ATCC 3851 after 24 hrs by two fold serial dilution method; type: functional; details: ATCC 3851, 24 h

Chain of Isocitrate lyase (Q9P8Q7 whole entry): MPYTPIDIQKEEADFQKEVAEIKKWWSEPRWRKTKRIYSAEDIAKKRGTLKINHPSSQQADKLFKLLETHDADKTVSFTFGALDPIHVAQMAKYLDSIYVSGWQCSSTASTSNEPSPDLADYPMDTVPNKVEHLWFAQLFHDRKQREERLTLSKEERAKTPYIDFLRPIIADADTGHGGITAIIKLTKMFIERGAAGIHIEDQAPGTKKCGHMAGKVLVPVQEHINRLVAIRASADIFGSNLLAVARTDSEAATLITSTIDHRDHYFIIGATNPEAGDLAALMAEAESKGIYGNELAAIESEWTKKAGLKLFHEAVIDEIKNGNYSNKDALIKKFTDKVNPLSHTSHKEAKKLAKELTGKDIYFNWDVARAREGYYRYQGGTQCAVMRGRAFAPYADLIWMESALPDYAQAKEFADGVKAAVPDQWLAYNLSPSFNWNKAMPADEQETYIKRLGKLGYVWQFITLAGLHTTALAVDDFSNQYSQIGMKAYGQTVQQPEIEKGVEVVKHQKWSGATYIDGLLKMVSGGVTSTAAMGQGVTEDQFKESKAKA

SMILES | MIC (Escherichia coli) [µg/mL] | MIC (Bacillus subtilis) [µg/mL] | MIC (Trichophyton rubrum) [µg/mL] | MIC (Salmonella typhimurium) [µg/mL] | MIC (Staphylococcus aureus) [µg/mL] | IC50 (Isocitrate lyase) [µM] | MIC (Aspergillus fumigatus) [µg/mL] | MIC (Candida albicans) [µg/mL] | MIC [1] [µg/mL] | MIC (Micrococcus luteus) [µg/mL] | MIC (Proteus vulgaris) [µg/mL]
CCCCCC(c1ccc(O)cc1O)c1cc(Br)c(O)cc1O (configuration not stated) | 100 (≈ 262 µM) | 3.12 (≈ 8.18 µM) | 50 (≈ 131 µM) | 3.12 (≈ 8.18 µM) | 6.25 (≈ 16.4 µM) | 46.6 | 50 (≈ 131 µM) | 50 (≈ 131 µM) | 50 (≈ 131 µM) | 3.12 (≈ 8.18 µM) | 3.12 (≈ 8.18 µM)
O=C(O)CC[N+](=O)[O-] | – | – | – | – | – | 6 | – | – | – | – | –
Oc1ccc(C(c2ccc(O)cc2O)c2cc(Br)c(O)cc2O)cc1 (configuration not stated) | > 100 | 3.12 (≈ 7.74 µM) | > 100 | 6.25 (≈ 15.5 µM) | 6.25 (≈ 15.5 µM) | 90.5 | > 100 | > 100 | > 100 | 3.12 (≈ 7.74 µM) | 3.12 (≈ 7.74 µM)
Oc1ccc(C(c2cc(Br)c(O)cc2O)c2c(Cl)cccc2Cl)c(O)c1 (configuration not stated) | > 100 | 6.25 (≈ 13.7 µM) | > 100 | 12.5 (≈ 27.4 µM) | 12.5 (≈ 27.4 µM) | 78.7 | > 100 | > 100 | > 100 | 12.5 (≈ 27.4 µM) | 12.5 (≈ 27.4 µM)
Oc1cc(O)c(C(c2cc(Br)c(O)cc2O)c2c(Cl)cccc2Cl)cc1Br | 100 (≈ 187 µM) | 1.56 (≈ 2.92 µM) | > 100 | 6.25 (≈ 11.7 µM) | 6.25 (≈ 11.7 µM) | 17.9 | 100 (≈ 187 µM) | 100 (≈ 187 µM) | 100 (≈ 187 µM) | 1.56 (≈ 2.92 µM) | 1.56 (≈ 2.92 µM)
CCCCCC(c1ccc(O)cc1O)c1ccc(O)cc1O | 100 (≈ 331 µM) | 6.25 (≈ 20.7 µM) | > 100 | 12.5 (≈ 41.3 µM) | 12.5 (≈ 41.3 µM) | 167 | > 100 | > 100 | > 100 | 12.5 (≈ 41.3 µM) | 12.5 (≈ 41.3 µM)
CC1(C)S[C@@H]2[C@H](NC(=O)[C@H](N)c3ccccc3)C(=O)N2[C@H]1C(=O)O [AMPICILLIN] | 6.25 (≈ 17.9 µM) | 0.39 (≈ 1.12 µM) | 1.56 (≈ 4.46 µM) | 0.78 (≈ 2.23 µM) | 0.39 (≈ 1.12 µM) | – | 1.56 (≈ 4.46 µM) | 0.78 (≈ 2.23 µM) | 1.56 (≈ 4.46 µM) | 1.56 (≈ 4.46 µM) | 0.78 (≈ 2.23 µM)
O=[N+]([O-])c1ccc(C(c2ccc(O)cc2O)c2cc(Br)c(O)cc2O)cc1 (configuration not stated) | > 100 | 50 (≈ 116 µM) | > 100 | 100 (≈ 231 µM) | 100 (≈ 231 µM) | 41.2 | > 100 | > 100 | > 100 | 50 (≈ 116 µM) | 100 (≈ 231 µM)
CCCCCC(c1cc(Br)c(O)cc1O)c1cc(Br)c(O)cc1O | 50 (≈ 109 µM) | 1.56 (≈ 3.39 µM) | 12.5 (≈ 27.2 µM) | 3.12 (≈ 6.78 µM) | 3.12 (≈ 6.78 µM) | 28 | 12.5 (≈ 27.2 µM) | 25 (≈ 54.3 µM) | 25 (≈ 54.3 µM) | 1.56 (≈ 3.39 µM) | 1.56 (≈ 3.39 µM)

The remaining lines, values ahead:

MIC (Escherichia coli) [µg/mL] | MIC (Bacillus subtilis) [µg/mL] | MIC (Trichophyton rubrum) [µg/mL] | MIC (Salmonella typhimurium) [µg/mL] | MIC (Staphylococcus aureus) [µg/mL] | IC50 (Isocitrate lyase) [µM] | MIC (Aspergillus fumigatus) [µg/mL] | MIC (Candida albicans) [µg/mL] | MIC [1] [µg/mL] | MIC (Micrococcus luteus) [µg/mL] | MIC (Proteus vulgaris) [µg/mL] | SMILES
> 100 | 1.56 (≈ 3.05 µM) | 100 (≈ 196 µM) | 3.12 (≈ 6.1 µM) | 3.12 (≈ 6.1 µM) | 26.8 | 100 (≈ 196 µM) | 50 (≈ 97.8 µM) | 100 (≈ 196 µM) | 1.56 (≈ 3.05 µM) | 1.56 (≈ 3.05 µM) | O=[N+]([O-])c1cccc(C(c2cc(Br)c(O)cc2O)c2cc(Br)c(O)cc2O)c1
> 100 | 6.25 (≈ 14.5 µM) | > 100 | 6.25 (≈ 14.5 µM) | 12.5 (≈ 28.9 µM) | 69.9 | > 100 | 100 (≈ 231 µM) | > 100 | 12.5 (≈ 28.9 µM) | 6.25 (≈ 14.5 µM) | O=[N+]([O-])c1cccc(C(c2ccc(O)cc2O)c2cc(Br)c(O)cc2O)c1 (configuration not stated)
> 100 | 0.78 (≈ 1.62 µM) | 100 (≈ 207 µM) | 1.56 (≈ 3.24 µM) | 0.78 (≈ 1.62 µM) | 25.9 | 50 (≈ 104 µM) | 50 (≈ 104 µM) | 100 (≈ 207 µM) | 0.78 (≈ 1.62 µM) | 0.78 (≈ 1.62 µM) | Oc1ccc(C(c2cc(Br)c(O)cc2O)c2cc(Br)c(O)cc2O)cc1
> 100 | 12.5 (≈ 24.5 µM) | > 100 | 25 (≈ 48.9 µM) | 25 (≈ 48.9 µM) | 20.7 | > 100 | > 100 | > 100 | 12.5 (≈ 24.5 µM) | 25 (≈ 48.9 µM) | O=[N+]([O-])c1ccc(C(c2cc(Br)c(O)cc2O)c2cc(Br)c(O)cc2O)cc1
